Reference: US12533429B2, “Surface enhanced raman scattering nanoparticles and their use in detecting and imaging oxidative stress” (The Board of Trustees of the Leland Stanford Junior …, priority 2019, dated 2026)
Values joined by “and” are separate entries in the source; they are usually repeats but may differ in a detail not shown here. Equal entries are not always repeated.

How the values were obtained:
AD-MSCs = experiment: DCFH-DA fluorometric ROS assay in AD-MSCs; assay type: cell-based; settings: 300,000 AD-MSCs
A431 cells = experiment: DCFH-DA fluorometric ROS assay in A431 cells; assay type: cell-based, human; settings: DCFH-DA 40 μM, 24 h
Protocol: (§1) To measure ROS, a traditional fluorometric assay using Dichlorofluorescein diacetate (DCFH-DA; Sigma Aldrich, USA) was performed. DCFH-DA is a cell-permeable non-fluorescent probe which is hydrolyzed by intracellular esterases, thereby trapping it within the cell. This non-fluorescent molecule can then be oxidized by ROS, which turns it into fluorescent dichlorofluorescein (DCF). The level of intracellular fluorescence is therefore proportional to the amount of intracellular ROS production with a linear dynamic range [12]. All experiments were performed in 12-well plates. A431 and AsPC-1 cells were seeded in 12-well culture plates achieving a cell density of 50,000, 100,000, 200,000 and 300,000 cells/well. Cells were incubated with DCFH-DA (40 μM, 200 μL) in DMEM-10% FBS-50 U/mL penicillin-50 μg/mL streptomycin culture medium at 37° C. in a humidified incubator containing 5% CO2/95% air for 24 h. The fluorescence from DCF was then measured using a microplate spectrophotometer system with […].

AsPC-1 cells = experiment: DCFH-DA fluorometric ROS assay in AsPC-1 cells; assay type: cell-based, human; settings: DCFH-DA 40 μM, 24 h
Protocol: as §1

Dichlorofluorescein diacetate [DCFH-DA] was tested, and the “ROS production, DCFH-DA assay” value (AD-MSCs) was 1.06±0.05 absorbance units, the “ROS production, DCFH-DA assay” value (A431 cells; 50,000 A431 cells) was 0.17±0.01 absorbance units and the “ROS production, DCFH-DA assay” value (A431 cells; 100,000 A431 cells) was 0.49±0.01 absorbance units. For the same substance, the “ROS production, DCFH-DA assay” value (A431 cells; 200,000 A431 cells) was 0.96±0.07 absorbance units, the “ROS production, DCFH-DA assay” value (A431 cells; 300,000 A431 cells) was 1.06±0.05 absorbance units and 1.10±0.04 absorbance units and the “ROS production, DCFH-DA assay” value (AsPC-1 cells; 50,000 AsPC-1 cells) was 0.15±0.04 absorbance units. The “ROS production, DCFH-DA assay” value (AsPC-1 cells; 100,000 AsPC-1 cells) was 0.51±0.06 absorbance units and the “ROS production, DCFH-DA assay” value (AsPC-1 cells; 200,000 AsPC-1 cells) was 0.82±0.05 absorbance units.
